Results published in patent US20250052985A1, “SYSTEM AND METHOD FOR QUANTITATIVE PHASE IMAGING FOR MULTI-PARAMETRIC SCREENING OF TUMOR THERAPY RESPONSE” (UNIVERSITY OF UTAH RESEARCH FOUNDATION, priority 2023, published 2025).
Where “and” joins values, the source holds several entries; their conditions need not be identical. Equal entries are not always repeated. Where two headings read alike, the source gives them in different places.

What was measured:
Format in all cases: cell-based
HCI-037 PDxO cells = experiment: QPI on cells from patient-derived organoid HCI-037 (primary lesion); details: HCI-037, 48 h imaging, 3-parameter Hill model
Procedure: (§1) In some embodiments, the QPI microscope system 110 performs QPI on cells from patient-derived organoids and direct-from-patient samples. For example, the electronic controller 155 analyzes data on cells from a set of 5 organoids representing samples collected from two patients, as illustrated by a workflow 3400 in FIG. 24. The workflow 3400 is an experiment workflow illustrating how assays are analyzed by the QPI microscope system 110. In some embodiments, the QPI microscope system 110 images cells for 48 h, and uses an automatic segmentation algorithm, via the electronic controller 155, to identify individual cells from background, as shown in images 3405 and 3410 of FIG. 24. […] The electronic controller 155 determines the mass of each cell by summing the cell mass over the segmented area. In some embodiments, plots of mass over time reveal single cell growth rates, as shown by graph 3415 of FIG. 24. The graph 3415 is a mass vs. time plot showing DMSO treated cells growing cells at a typical location. Cells outlined in green are shown as green on the plot, other growing cells are shown in purple. The electronic controller 155 determine the specific growth rate (SGR) by fitting a line to time-series mass measurements and normalizing by an initial mass predicted by the fit to account for the effect of cell size on growth rate. The electronic controller 155 fits SGR as a function of dose to a sigmoidal dose response curve using a 3-parameter Hill model to extract dose response measurements, as shown by graph 3420 of FIG. 24. […] In some embodiments, EC50 measured by the QPI microscope system 110 is strongly concordant with gold standard techniques such as CTG over 27 conditions (e.g., 9 compounds, 3 breast cancer cell lines). […] As with cell line data, QPI data on cells from PDxO resolves differences in temporal dynamics of response to therapy, as shown in graph 3425 of FIG. 24. […] In some embodiments, the electronic controller 155 is configured to determine a drug response of each of the plurality of treatment samples from patient derived organoids.
The graphs 3500 includes graph A of the graphs 3500 showing normalized mass vs. time for HCI-037 (primary), HCI-038 (metastatic), and HCI-039 (pleural effusion) showing reduction in growth as concentration increases. Graphs B, C, D, and E of the graphs 3500 show dose response plots showing the differential response between different disease models. Graphs F, G, H, and I of the graphs 3500 show Hellinger distance vs. time plots showing the time of response for the different models treated with various therapies. In some embodiments, HCI-037, HCI-038, and HCI-039, PDxO models are used that are derived from primary lesion, bone metastasis, and pleural effusion, respectively, at different time points from a single patient during the course of treatment and progressive disease. In some embodiments, the electronic controller 155 is configured to determine a difference drug response from patient derived organoids. In some embodiments, the patient derived organoids are tumor organoids.

BT-474 cells = experiment: CellTiter-Glo (CTG) ATP viability assay, BT-474; details: for Min Asymptote: BT-474, Hill fit of luminescence normalized to solvent control, one line per replicate; for DoR CTG: depth of response
Procedure: CTG (e.g., read by the CTG reader 115) is a cell viability assay that quantifies the amount of ATP present at the end of an experiment as an indicator of the number of live cells. The electronic controller 155 measures ATP content in each condition as a readout by a luminescent signal, which is normalized by the luminescence of the control (e.g., a control well) to determine cell viability relative to on-plate controls. In some embodiments, the CTG assay is performed by first removing 100 μL of media from each well on the well-plate 105, which is then replaced with an equal amount of CellTiter-Glo reagent (e.g., Promega, G7572). Assayed plates may be shaken at 500 RPM for 20 minutes and allowed to rest for 10 minutes. In some instances, 100 μL of volume from each well is transferred to a white 96-well plate (e.g., Perkin Elmer, 6005680). The electronic controller 155 collects luminescence data from each well using an Envision plate reader (e.g., Perkin Elmer) and normalized against the solvent control to measure ATP content. The electronic controller 155 fits a 4-parameter hill curve to the dose response to determine the EC50 and depth of response.

[1] = tested on: primary tumor cells (Patient #1); experiment: QPI on primary cells after two-week expansion, Patient #1; details: Patient #1
Procedure: In some embodiments, the QPI microscope system 110 applies multiparametric QPI to primary cells from two clinical samples stored in cell bank at, for example, the Huntsman Cancer Institute plated after thawing from liquid nitrogen and CD45+ depleted to reduce the number of immune cells, as shown in FIG. 26.
For example, the primary cells are plated as a 2D monolayer in Clever's complete medium in a 96 well plate (e.g., the well-plate 105) and are allowed to acclimate to cell culture conditions for 18 h prior to dosing with treatments assigned to each patient by a physician. […] The image 3600 is a QPI image of primary cells from a direct from thaw patient derived sample. […] The graph 3610 is a histogram of cell mass used to computationally filter, using the electronic controller 155, for low mass cells (shown in red in the image 3600 and the graph 3605). By using a cutoff between the peaks at, for example, 72 pg, low mass cells can be isolated that are not growing and remove such cells from analysis. […] Using this cutoff, the electronic controller 155 measures the dose response for cells in each condition to determine the EC50 and DoR for each condition studied for the primary cells, as shown in the graph 3615. The graph 3615 is a dose response plot for primary cells treated with therapies assigned to the patient by a physician. […] In some embodiments, the electronic controller 155 determines a drug response in cells from patient derived samples. For example, the electronic controller 155 determines the drug response in therapy treatment samples from patient derived samples.
In some embodiments, both samples are expanded from primary cells in 2D culture using optimized ex vivo culture conditions for 2 weeks, changing media every 3 days to further purify the tumor cells, as shown in a workflow 3700 of FIG. 27.

HCI-038 PDxO cells = experiment: QPI on cells from patient-derived organoid HCI-038 (bone metastasis); details: HCI-038, bone metastasis
Procedure: In some embodiments, the QPI microscope system 110 performs QPI on cells from patient-derived organoids and direct-from-patient samples. For example, the electronic controller 155 analyzes data on cells from a set of 5 organoids representing samples collected from two patients, as illustrated by a workflow 3400 in FIG. 24. The workflow 3400 is an experiment workflow illustrating how assays are analyzed by the QPI microscope system 110. In some embodiments, the QPI microscope system 110 images cells for 48 h, and uses an automatic segmentation algorithm, via the electronic controller 155, to identify individual cells from background, as shown in images 3405 and 3410 of FIG. 24. […] The electronic controller 155 determines the mass of each cell by summing the cell mass over the segmented area. In some embodiments, plots of mass over time reveal single cell growth rates, as shown by graph 3415 of FIG. 24. The graph 3415 is a mass vs. time plot showing DMSO treated cells growing cells at a typical location. Cells outlined in green are shown as green on the plot, other growing cells are shown in purple. […] In some embodiments, EC50 measured by the QPI microscope system 110 is strongly concordant with gold standard techniques such as CTG over 27 conditions (e.g., 9 compounds, 3 breast cancer cell lines). […]

HCI-039 PDxO cells = experiment: QPI on cells from patient-derived organoid HCI-039 (pleural effusion); details: HCI-039, pleural effusion
Procedure: as §1, with “organoids. […]” for “organoids.”

[2] = BT-474 cell line, CellTiter-Glo
[3] = Homo sapiens, BT-474, 24 h, 24 h CTG, BT-474, Hill fit, read-out: log10(EC50) (converted)
[4] = Homo sapiens, BT-474, BT-474 cell line, CellTiter-Glo, read-out: EC50, CTG
[5] = Homo sapiens, BT-474, 72 h, 72 h CTG, BT-474, Hill fit, read-out: log10(EC50) (converted)

Row | log10(EC50) (BT-474 cells; 72 h CTG, BT-474, Hill fit) | EC50 (BT-474 cells; [3]) [µM] | EC50 (BT-474 cells; [4]) [µM] | EC50 (BT-474 cells; [5]) [µM] | EC50 compared with eribulin [1] | SMILES | dose response (SGR vs dose) (HCI-037 PDxO cells) | Hill Slope (BT-474 cells; 24 h CTG, BT-474, Hill fit) | log10(EC50) (BT-474 cells; 24 h CTG, BT-474, Hill fit) | Min Asymptote (BT-474 cells; 24 h CTG) | Hill Slope (BT-474 cells; 72 h CTG, BT-474, Hill fit) | Min Asymptote (BT-474 cells; 72 h CTG) | EC50 (BT-474 cells; BT-474 cell line, CellTiter-Glo, read-out: EC50, CTG) [µM] | DoR CTG (BT-474 cells; [2]) | response compared with primary lesion model (HCI-038 PDxO cells) | response compared with primary lesion model (HCI-039 PDxO cells)
1 | 0.7667 | 10.9 | 0.1 | – | – | O=c1[nH]cc(F)c(=O)[nH]1 [5FU, 5-Fluorouracil] | – | 0.5388 | – | 0.925 | 1.185 and 1.042 | 0.938 (2×) and 0.9222 | – | 0.1 | – | –
2 | 2.403 | 0.0137 | – | 0.00334 | – | CC(=O)O[C@@]12CO[C@@H]1C[C@H](O)[C@@]1(C)C(=O)[C@H](O)C3=C(C)[C@@H](OC(=O)[C@H](O)[C@@H](NC(=O)OC(C)(C)C)c4ccccc4)C[C@@](O)([C@@H](OC(=O)c4ccccc4)[C@H]21)C3(C)C [Docetaxel] | – | 7.175 | – | 0.8491 | 7.938 and 5.667 | 0.2805 and 0.3348 | – | 0.6 | – | –
3 | 0.3455 | – | 0.4 | 0.434 | lower EC50 than eribulin | COc1cccc2c1C(=O)c1c(O)c3c(c(O)c1C2=O)C[C@@](O)(C(=O)CO)C[C@@H]3O[C@H]1C[C@H](N)[C@H](O)[C@H](C)O1 [Doxorubicin] | strong response | – | – | – | 8.999 and 8.652 | 0.5407 (2×) and 0.5602 | – | 0.5 | – | –
4 | – | 14.2 | – | – | – | CC(=O)c1c(C)c2cnc(Nc3ccc(N4CCNCC4)cn3)nc2n(C2CCCC2)c1=O [Palbociclib] | – | 6.945 | – | 0.2202 | 5.467 and 7.802 | 0.01628 and 0.01895 | – | 0.9 | – | –
5 | – | 1.83 | 6.4 | 0.00766 | – | CC[C@]1(O)C[C@@H]2CN(CCc3c([nH]c4ccccc34)[C@@](C(=O)OC)(c3cc4c(cc3OC)N(C)[C@H]3[C@@](O)(C(=O)OC)[C@H](OC(C)=O)[C@]5(CC)C=CCN6CC[C@]43[C@@H]65)C2)C1 [Vinblastine] | lesser response | 0.3445 | – | 0.5659 | 0.1 | 0.06356 | – | 1.0 | stronger response | stronger response

Row | SMILES | log10(EC50) (BT-474 cells; 72 h CTG, BT-474, Hill fit) | EC50 (BT-474 cells; [3]) [µM] | EC50 (BT-474 cells; [4]) [µM] | EC50 (BT-474 cells; [5]) [µM] | EC50 compared with eribulin [1] | dose response (SGR vs dose) (HCI-037 PDxO cells) | Hill Slope (BT-474 cells; 24 h CTG, BT-474, Hill fit) | log10(EC50) (BT-474 cells; 24 h CTG, BT-474, Hill fit) | Min Asymptote (BT-474 cells; 24 h CTG) | Hill Slope (BT-474 cells; 72 h CTG, BT-474, Hill fit) | Min Asymptote (BT-474 cells; 72 h CTG) | EC50 (BT-474 cells; BT-474 cell line, CellTiter-Glo, read-out: EC50, CTG) [µM] | DoR CTG (BT-474 cells; [2]) | response compared with primary lesion model (HCI-038 PDxO cells) | response compared with primary lesion model (HCI-039 PDxO cells)
6 | CCC(=C(c1ccc(O)cc1)c1ccc(OCCN(C)C)cc1)c1ccccc1 [4HT, 4-hydroxy-Tamoxifen] | −0.6116 and −0.6471 | – | – | – | – | strong response | 4.596 | −0.736 | 0.07942 | 3.312 and 3.655 | 1.76E−08 (2×) and 8.28E−08 | 4.2 | 1.0 | – | –
7 | C[C@]12CC[C@@H]3c4ccc(O)cc4C[C@@H](CCCCCCCCC[S+]([O-])CCCC(F)(F)C(F)(F)F)[C@H]3[C@@H]1CC[C@@H]2O (some centres unmarked) [Fulvestrant] | – | – | 1340 | – | – | – | – | – | – | – | 0.1608 (2×) and 0.8009 | – | 0.6 | – | –
